Test results reported in paper PMC9393165 (Scientific Reports, 2022).
Where two headings read alike, the source gives them in different places. Marks after values point to notes of the source that are not given here.

Legend:
[1] = Clinical outcomes after kidney transplantation (hypotension, DGF, BPAR, post-transplant diabetes, tremor); type: in vivo, human
Experimental: (§1) For calculation of AUC/D and C0/D, values of AUC and C0 were dose-adjusted by dividing the observed values by the dose recorded on the day of blood collection. Early-morning blood pressures were measured on the same day of blood collection for pharmacokinetic analysis by a ward nurse as part of a routine examination, during rest in a seated position with a calibrated and well-maintained automatic sphygmomanometer. Delayed graft function (DGF) was defined as failure of the kidney graft to function immediately, with the need for dialysis in the first 7 days post-KT. Episode of biopsy-proven acute rejection (BPAR) during 3 months post-KT was diagnosed based on histologic findings in indication kidney graft biopsy according to Banff 2015 criteria.

[2] = Tacrolimus whole blood concentration, trough and 12-h AUC after kidney transplantation (chemiluminescent microparticle immunoassay); type: in vivo, human; details: for C0 / AUC: human, whole blood, oral
Experimental: This prospective, randomized, double-blind, placebo-controlled study was carried out in four parallel groups of KTRs. […] The randomization schedule was concealed in sequentially numbered, sealed, opaque envelopes, and kept in a locked cabinet in the central pharmacy of Siriraj Hospital. Envelopes were opened sequentially only after enrollment of each participant. The diltiazem and placebo containers, which were issued with a medication number and assigned to consecutive patients in a sequential order, were tamper-proof, equal in weight, and similar in appearance. A pharmacist not involved in the care of the study patients did the randomization, distributed the study agents, and held the trial codes, which were disclosed after the study. Physicians, nurses, other care providers, and the study patients were unaware of the group allocations.
All participants received oral, immediate-release tacrolimus (Prograf®; Astellas, Kerry, Ireland). According to Siriraj Hospital protocol, the initial dose (0.05 mg/kg every 12 h) of tacrolimus was started 2 days before KT (day − 2) and subsequently adjusted after KT based on efficacy and toxicity and to maintain morning trough concentrations of 7 to 10 ng/mL in standard risk patients and 10 to 12 ng/mL in high-risk patients during the first week after transplantation. Participants also received either mycophenolate mofetil (Cellcept®; F Hoffmann-La Roche Ltd, Basel, Switzerland or Immucept®; Intas Pharmaceuticals Ltd., Gujarat, India) or mycophenolate sodium (Myfortic®; Novartis Pharma Stein, Switzerland for Novartis AG, Basel, Switzerland) at the dosage equivalent to 2 g/day of mycophenolate mofetil. A tapered corticosteroid regimen was administered consisting of an intravenous bolus of 500 mg of methylprednisolone (Solu-medrol®; Novartis Pharma Stein, Switzerland for Novartis AG, Basel, Switzerland) on day 0, 250 mg on day 1, 125 mg on day 2 followed by 40 mg/day of prednisolone on day 4 after KT. The subsequent prednisolone doses were gradually tapered thereafter. Induction therapy with basiliximab (Simulect®; Novartis Pharma AG, Basel, Switzerland) was allowed.
All patients received a fixed dose of omeprazole 40 mg/day.
[…] Samples were collected in EDTA tubes and stored at 4 degrees Celsius until analysis. Whole blood tacrolimus concentrations were determined within the same day of blood collection by using a chemiluminescent microparticle immunoassay method with […] system® i2000 (Abbott, Abbott Diagnostic, USA). The method was linear in the concentration range up to 30 ng/mL, the limits of quantification were 0.8 ng/mL, and the coefficient of variation of within run precision and between run precision were less than 10%. Mean recovery was 100 ± 10% according to the manufacturer’s information.
as §1

[3] = day 1 post-transplantation, CYP3A5 expressers, diltiazem 30 mg every 12 h (n = 11), median (IQR)
[4] = day 1 post-transplantation, CYP3A5 expressers, placebo (n = 12), median (IQR)
[5] = day 1 post-transplantation, CYP3A5 non-expressers, diltiazem 30 mg every 12 h (n = 9), median (IQR)
[6] = day 1 post-transplantation, CYP3A5 non-expressers, placebo (n = 8), median (IQR)
[7] = day 3 post-transplantation, CYP3A5 expressers, diltiazem 30 mg every 12 h (n = 11), median (IQR)
[8] = day 3 post-transplantation, CYP3A5 expressers, placebo (n = 12), median (IQR)
[9] = day 3 post-transplantation, CYP3A5 non-expressers, diltiazem 30 mg every 12 h (n = 9), median (IQR)
[10] = day 3 post-transplantation, CYP3A5 non-expressers, placebo (n = 8), median (IQR)
[11] = day 7, all 40 KTRs, median (IQR)
[12] = day 7 post-transplantation, CYP3A5 expressers, diltiazem 30 mg every 12 h (n = 11), median (IQR)
[13] = day 7 post-transplantation, CYP3A5 expressers, placebo (n = 12), median (IQR)
[14] = day 7 post-transplantation, CYP3A5 non-expressers, diltiazem 30 mg every 12 h (n = 9), median (IQR)
[15] = day 7 post-transplantation, CYP3A5 non-expressers, placebo (n = 8), median (IQR)

Q: With `C=CC[C@@H]1/C=C(\C)C[C@H](C)C[C@H](OC)[C@H]2O[C@@](O)(C(=O)C(=O)N3CCCC[C@H]3C(=O)O[C@H](/C(C)=C/[C@@H]3CC[C@@H](O)[C@H](OC)C3)[C@H](C)[C@@H](O)CC1=O)[C@H](C)C[C@@H]2OC` [Tacrolimus] as the molecule, how does the Tremor ([1]; during 3 months after transplantation, 40 KTRs) read?
A: No study patients reported tremor

Q: And the “Biopsy-proven acute rejection (BPAR)” value ([1]; during 3 months after transplantation, 40 KTRs on tacrolimus-based regimen, one in EXdtz, one in NEplb)?
A: 5%

Q: And the Post-transplant diabetes mellitus ([1]; during 3 months after transplantation, 40 KTRs, one in EXplb, one in EXdtz)?
A: 5%

Q: And the “DGF, suspected rejection, or BPAR” value ([1]; first week post-KT, 40 KTRs on tacrolimus-based regimen)?
A: None

Q: And the C0/D [2, 3]?
A: 3.3 (2.6, 4.5) ng/mL per mg

Q: And the C0/Daily dose [2, 3]?
A: 1.6 (1.3, 2.3) ng/mL per mg/day

Q: And the C0/D [2, 4]?
A: 2.2 (1.3, 2.8) ng/mL per mg

Q: What about the C0/Daily dose [2, 4] of the same molecule?
A: 1.1 (0.6, 1.4) ng/mL per mg/day

Q: What about the C0/D [2, 5] of the same molecule?
A: 3.8 (2.7, 7.2)^c ng/mL per mg

Q: What about the C0/Daily dose [2, 5] of the same molecule?
A: 1.9 (1.3, 3.6)^c ng/mL per mg/day

Q: And the C0/D [2, 6]?
A: 3.8 (2.0, 5.0) ng/mL per mg

Q: And the C0/Daily dose [2, 6]?
A: 1.9 (1.0, 2.5) ng/mL per mg/day

Q: What about the C0/D [2, 7] of the same molecule?
A: 3.7 (2.4, 4.5)^c ng/mL per mg

Q: And the C0/Daily dose [2, 7]?
A: 1.8 (1.2, 2.2)^c ng/mL per mg/day

Q: What about the C0/D [2, 8] of the same molecule?
A: 1.8 (1.1, 2.0) ng/mL per mg

Q: What about the C0/Daily dose [2, 8] of the same molecule?
A: 0.9 (0.6, 1.0) ng/mL per mg/day

Q: And the C0/D [2, 9]?
A: 6.4 (4.1, 8.8)^c ng/mL per mg

Q: And the C0/Daily dose [2, 9]?
A: 3.2 (2.0, 4.4)^c ng/mL per mg/day

Q: What about the C0/D [2, 10] of the same molecule?
A: 3.4 (2.7, 5.8)^c ng/mL per mg

Q: And the C0/Daily dose [2, 10]?
A: 1.7 (1.4, 2.9)^c ng/mL per mg/day

Q: What about the AUC/D [2, 11] of the same molecule?
A: 44.9 (37.1, 65.3) ng*h/mL per mg

Q: What about the C0/D [2, 11] of the same molecule?
A: 2.5 (1.8, 3.7) ng/mL per mg

Q: And the “C0, range” value ([2]; day 7, all 40 KTRs, range)?
A: 5.0 to 13.2 ng/mL

Q: And the “AUC/D (dose-adjusted area under the 12-h curve)” value ([2]; day 7 post-transplantation, CYP3A5 expressers, diltiazem 30 mg every 12 h (EXdtz, n = 11), median (IQR))?
A: 43.6 (37.0, 50.5) ng*h/mL per mg

Q: What about the “AUC/D (dose-adjusted area under the 12-h curve)” value ([2]; day 7 post-transplantation, CYP3A5 expressers, diltiazem 30 mg every 12 h (EXdtz, n = 11), median (IQR), listed as tacrolimus) of the same molecule?
A: 43.6 ng*h/mL per mg

Q: And the C0/D [2, 12]?
A: 1.9 (1.8, 3.2) ng/mL per mg

Q: What about the C0/Daily dose [2, 12] of the same molecule?
A: 1.0 (0.9, 1.6) ng/mL per mg/day

Q: What about the “AUC/D (dose-adjusted area under the 12-h curve)” value ([2]; day 7 post-transplantation, CYP3A5 expressers, placebo (EXplb, n = 12), median (IQR)) of the same molecule?
A: 34.9 (31.6, 38.5) ng*h/mL per mg

Q: What about the “AUC/D (dose-adjusted area under the 12-h curve)” value ([2]; day 7 post-transplantation, CYP3A5 expressers, placebo (EXplb, n = 12), median (IQR), listed as tacrolimus) of the same molecule?
A: 34.9 ng*h/mL per mg

Q: And the C0/D [2, 13]?
A: 2.0 (1.4, 2.5) ng/mL per mg

Q: And the C0/Daily dose [2, 13]?
A: 1.0 (0.7, 1.2) ng/mL per mg/day

Q: What about the “AUC/D (dose-adjusted area under the 12-h curve)” value ([2]; day 7 post-transplantation, CYP3A5 non-expressers, diltiazem 30 mg every 12 h (NEdtz, n = 9), median (IQR)) of the same molecule?
A: 71.1 (54.9, 100.7)^c ng*h/mL per mg

Q: What about the “AUC/D (dose-adjusted area under the 12-h curve)” value ([2]; day 7 post-transplantation, CYP3A5 non-expressers, diltiazem 30 mg every 12 h (NEdtz, n = 9), median (IQR), listed as tacrolimus) of the same molecule?
A: 71.1 ng*h/mL per mg

Q: What about the C0/D [2, 14] of the same molecule?
A: 4.2 (2.8, 6.0)^c ng/mL per mg

Q: What about the C0/Daily dose [2, 14] of the same molecule?
A: 2.1 (1.4, 3.0)^c ng/mL per mg/day

Q: What about the “AUC/D (dose-adjusted area under the 12-h curve)” value ([2]; day 7 post-transplantation, CYP3A5 non-expressers, placebo (NEplb, n = 8), median (IQR)) of the same molecule?
A: 49.4 (43.0, 62.9)^c ng*h/mL per mg

Q: What about the “AUC/D (dose-adjusted area under the 12-h curve)” value ([2]; day 7 post-transplantation, CYP3A5 non-expressers, placebo (NEplb, n = 8), median (IQR), listed as tacrolimus) of the same molecule?
A: 49.4 ng*h/mL per mg

Q: What about the C0/D [2, 15] of the same molecule?
A: 2.8 (2.5, 3.4) ng/mL per mg

Q: What about the C0/Daily dose [2, 15] of the same molecule?
A: 1.4 (1.2, 1.7) ng/mL per mg/day

Q: What about the C0 ([2]; 30 mg, day 1 post-transplantation, CYP3A5 expressers, diltiazem 30 mg every 12 h (n = 11), mean ± SD) of the same molecule?
A: 10.9 ± 3.7 ng/mL

Q: And the C0 ([2]; 30 mg, day 1 post-transplantation, CYP3A5 non-expressers, diltiazem 30 mg every 12 h (n = 9), mean ± SD)?
A: 13.1 ± 7.4 ng/mL

Q: And the C0 ([2]; 30 mg, day 3 post-transplantation, CYP3A5 expressers, diltiazem 30 mg every 12 h (n = 11), median (IQR))?
A: 9.3 ng/mL

Q: What about the C0 ([2]; 30 mg, day 3 post-transplantation, CYP3A5 non-expressers, diltiazem 30 mg every 12 h (n = 9), median (IQR)) of the same molecule?
A: 11.9 ng/mL

Q: And the C0 ([2]; 30 mg, day 7 post-transplantation, CYP3A5 expressers, diltiazem 30 mg every 12 h (n = 11), mean ± SD)?
A: 7.4 ± 2.1 ng/mL

Q: What about the AUC ([2]; 30 mg, day 7 post-transplantation, CYP3A5 expressers, diltiazem 30 mg every 12 h (n = 11), mean ± SD, read-out: AUC (area under the concentration over 12-h curve)) of the same molecule?
A: 138 ± 29.6 ng·h/mL

Q: And the C0 ([2]; 30 mg, day 7 post-transplantation, CYP3A5 non-expressers, diltiazem 30 mg every 12 h (n = 9), mean ± SD)?
A: 8.4 ± 1.8 ng/mL

Q: And the AUC ([2]; 30 mg, day 7 post-transplantation, CYP3A5 non-expressers, diltiazem 30 mg every 12 h (n = 9), mean ± SD, read-out: AUC (area under the concentration over 12-h curve))?
A: 148 ± 25.5 ng·h/mL

Q: And the C0 ([2]; day 1 post-transplantation, CYP3A5 expressers, placebo (n = 12), mean ± SD)?
A: 7 ± 3.2 ng/mL

Q: And the C0 ([2]; day 1 post-transplantation, CYP3A5 non-expressers, placebo (n = 8), mean ± SD)?
A: 12.6 ± 7.2 ng/mL

Q: What about the C0 [2, 8] of the same molecule?
A: 6.2 ng/mL

Q: What about the C0 [2, 10] of the same molecule?
A: 9.4 ng/mL

Q: And the C0 ([2]; day 7, all 40 KTRs, mean ± SD)?
A: 8.4 ± 2.1 ng/mL

Q: And the AUC ([2]; day 7, all 40 KTRs, mean ± SD, read-out: AUC)?
A: 154 ± 33.2 ng·h/mL

Q: What about the AUC ([2]; day 7, all 40 KTRs, range, read-out: AUC, range) of the same molecule?
A: 96.9 to 233 ng·h/mL

Q: What about the C0 ([2]; day 7 post-transplantation, CYP3A5 expressers, placebo (n = 12), mean ± SD) of the same molecule?
A: 9.2 ± 1.6 ng/mL

Q: And the AUC ([2]; day 7 post-transplantation, CYP3A5 expressers, placebo (n = 12), mean ± SD, read-out: AUC (area under the concentration over 12-h curve))?
A: 169 ± 32.2 ng·h/mL

Q: And the C0 ([2]; day 7 post-transplantation, CYP3A5 non-expressers, placebo (n = 8), mean ± SD)?
A: 8.6 ± 2.5 ng/mL

Q: And the AUC ([2]; day 7 post-transplantation, CYP3A5 non-expressers, placebo (n = 8), mean ± SD, read-out: AUC (area under the concentration over 12-h curve))?
A: 159 ± 40.7 ng·h/mL
